# Assay results reported in the NIST ThermoML archive (doi:10.1016/j.fluid.2015.05.043).
# Numbers after ± are expanded uncertainties.
# Settings: 298.15 K; 101.33 kPa; Liquid; Alternating current cell with electrodes
compound,measurement,value
O [water],electrical conductivity,0.000129 ± 1e-06 S/m
